Experimental data: patent US20240325351A1, “METHOD OF ADMINISTRATION” (Cybin UK Ltd., priority 2023, published 2024)
Values joined by “and” are separate entries in the source; they are usually repeats but may differ in a detail not shown here. Identical values can stand only once.

Tests used:
[1] = system: patients with moderate-severe Major Depressive Disorder; test: MADRS in unblinded study of single IV dose of DMT fumarate (NCT05553691); format: in vivo, human; conditions: for MADRS score: individual patients; for MADRS score / Remission (MADRS score ≤10) / Response (≥50% reduction in MADRS score from baseline): fumarate
Description: (§1) An unblinded study of a single dose of N,N-dimethyltryptamine [DMT] fumarate in patients currently taking a selective serotonin reuptake inhibitor (SSRI) for their depression, but for whom the SSRI is not fully relieving their depression is ongoing (ClinicalTrials.gov Identifier: NCT05553691). The study comprises two groups:
(§2) “Test Cohort”: Patients who are currently on a stable treatment course of SSRIs, which have been ineffective in fully relieving their depression symptoms (SSRI prescribed outside of study). Patients were administered a single dose of DMT fumarate by intravenous infusion; and
(§3) “Control Cohort”: Patients who are not currently taking any pharmacological treatment for their depression (control group). Patients were administered a single dose of DMT fumarate by intravenous infusion.
(§4) Patients were recruited with moderate-severe Major Depressive Disorder (“MDD”) as defined by a Hamilton Depression Rating Scale (HAM-D) score of ≥14. Efficacy was assessed using the Montgomery-Asberg Depression Rating scale (MADRS) to measure any change in patients' depression symptoms from baseline (Day 0). Additional exploratory endpoints include the Beck Depression Inventory (BDI) to assess patients' self-reported depression, and the State-Trait Anxiety Inventory (STAI-T) to assess patients' self-reported anxiety.
(§5) DMT fumarate is administered by intravenous infusion on Day 1.

[2] = system: patients with moderate-severe Major Depressive Disorder; test: BDI-II (Beck Depression Inventory), same study; format: in vivo, human; conditions: for BDI-II score: individual patients, fumarate
Description: as §1, §2, §3, §4, §5

[3] = system: patients with moderate-severe Major Depressive Disorder; test: STAI-T (State-Trait Anxiety Inventory), same study; format: in vivo, human; conditions: for STAI-T score: individual patients, fumarate
Description: as §1, §2, §3, §4, §5

[4] = system: patients with moderate-severe Major Depressive Disorder; test: Safety & Tolerability, same study; format: in vivo, human
Description: as §1, §2, §3, §5
The administration of DMT fumarate was well-tolerated by all patients in both the test and the control cohorts, with no apparent differences between cohorts.

[5] = system: major depressive disorder; conditions: in vivo; cited from earlier work
[6] = 33 mg; cited from earlier work
[7] = Control Cohort, n=5, Day 8 vs Day 0
[8] = Control Cohort, n=5, Day 15 vs Day 0
[9] = Control Cohort, n=5, Day 29 vs Day 0
[10] = Test Cohort (on SSRI), n=12, Day 8
[11] = Test Cohort (on SSRI), n=12, Day 8 vs Day 0
[12] = Test Cohort (on SSRI), n=12, Day 15
[13] = Test Cohort (on SSRI), n=12, Day 15 vs Day 0
[14] = Test Cohort (on SSRI), n=12, Day 29
[15] = Test Cohort (on SSRI), n=12, Day 29 vs Day 0
[16] = Test Cohort (on stable SSRI), Day 15
[17] = Test Cohort (on stable SSRI), Day 29

SMILES: CN(C)CCc1c[nH]c2ccccc12.O=C(O)/C=C/C(=O)O [DMT fumarate, N,N-dimethyltryptamine fumarate]
- MADRS score ([1]; Control Cohort (no pharmacological treatment), Day 8): 7 and 21 (2×) and 24 and 9
- MADRS score ([1]; Control Cohort (no pharmacological treatment), Day 15): 8 and 18 and 21 and 26 and 7
- MADRS score ([1]; Control Cohort (no pharmacological treatment), Day 29): 17 and 18 and 15 and 30 and 0
- MADRS Mean ([1]; Control Cohort, n=5, Day 8): 16.4
- MADRS Mean % change from Baseline [1, 7]: −53.1%
- MADRS Mean ([1]; Control Cohort, n=5, Day 15): 16.0
- MADRS Mean % change from Baseline [1, 8]: −54.2%
- MADRS Mean ([1]; Control Cohort, n=5, Day 29): 16.0
- Number of participants in remission (MADRS ≤10) ([1]; Control Cohort, n=5, Day 29): One
- Remission (MADRS score ≤10) ([1]; Control Cohort, n=5, Day 29): 20%
- Response (≥50% reduction in MADRS score from baseline) ([1]; Control Cohort, n=5, Day 29): 80%
- MADRS Mean % change from Baseline [1, 9]: −54.8%
- MADRS Mean [1, 10]: 6.7
- MADRS Mean % change from Baseline [1, 11]: −78.1%
- MADRS Mean [1, 12]: 6.0
- MADRS Mean % change from Baseline [1, 13]: −81.2%
- MADRS Mean [1, 14]: 3.0
- Number of participants in remission (MADRS ≤10) [1, 14]: 11 participants
- Remission (MADRS score ≤10) [1, 14]: 92%
- Response (≥50% reduction in MADRS score from baseline) [1, 14]: 100%
- MADRS Mean % change from Baseline [1, 15]: −90.2%
- Number of participants in remission (MADRS ≤10) ([1]; Test Cohort (on SSRI), n=12, all other time points (Day 8, Day 15)): 10 participants
- MADRS score ([1]; Test Cohort (on stable SSRI), Day 8, single IV infusion Day 1): 1 (3×) and 0 (2×) and 27 and 21 and 10 and 7 and 2 (2×) and 8
- MADRS score [1, 16]: 1 and 0 (4×) and 27 and 15 and 8 and 3 and 5 and 4 and 9
- MADRS score [1, 17]: 11 and 0 and 8 and 1 and 6 and 7 and 2
- BDI-II score ([2]; Control Cohort, Day 15): 20 and 17 (2×) and 22 and 8
- BDI-II score ([2]; Control Cohort, Day 29): 12 and 13 and 16 and 31 and 2
- BDI-II Mean ([2]; Control Cohort, n=5, Day 15): 16.8
- BDI-II Mean % change from Baseline [2, 8]: −54%
- BDI-II Mean ([2]; Control Cohort, n=5, Day 29): 14.8
- BDI-II Mean % change from Baseline [2, 9]: −59%
- BDI-II Mean [2, 12]: 5.1
- BDI-II Mean % change from Baseline [2, 13]: −84%
- BDI-II Mean [2, 14]: 3.1
- BDI-II Mean % change from Baseline [2, 15]: −88%
- BDI-II score [2, 16]: 0 (3×) and 3 (2×) and 29 and 6 and 5 (2×) and 1 (2×) and 8
- BDI-II score [2, 17]: 0 (5×) and 4 and 11 and 7 (2×) and 1 and 2 and 5
- STAI-T score ([3]; Control Cohort, Day 8): 60 and 40 and 44 and 50 and 38
- STAI-T score ([3]; Control Cohort, Day 15): 58 and 46 and 39 and 52 and 41
- STAI-T score ([3]; Control Cohort, Day 29): 51 and 49 and 47 and 59 and 32
- STAI-T Mean ([3]; Control Cohort, n=5, Day 8): 46.4
- STAI-T Mean % change from Baseline [3, 7]: −28.9%
- STAI-T Mean ([3]; Control Cohort, n=5, Day 15): 47.2
- STAI-T Mean % change from Baseline [3, 8]: −27.6%
- STAI-T Mean ([3]; Control Cohort, n=5, Day 29): 47.6
- STAI-T Mean % change from Baseline [3, 9]: −27.2%
- STAI-T Mean [3, 10]: 39.8
- STAI-T Mean % change from Baseline [3, 11]: −33.6%
- STAI-T Mean [3, 12]: 37.3
- STAI-T Mean % change from Baseline [3, 13]: −37.5%
- STAI-T Mean [3, 14]: 35.2
- STAI-T Mean % change from Baseline [3, 15]: −41.0%
- STAI-T score ([3]; Test Cohort (on stable SSRI), Day 8): 47 and 40 (2×) and 66 and 49 and 34 (2×) and 26 and 46 and 28 and 29 and 38
- STAI-T score [3, 16]: 44 and 30 and 62 and 45 and 33 (2×) and 40 (2×) and 42 and 25 and 22 and 32
- STAI-T score [3, 17]: 45 and 34 (2×) and 41 and 43 and 28 and 40 and 32 (2×) and 44 and 26 and 23
- Tolerability ([4]; all patients in both test and control cohorts, no apparent differences between cohorts): well-tolerated
- Drug-related serious adverse events ([4]; both cohorts): No drug-related serious adverse events reported
- Resolution of drug-related AEs ([4]; both cohorts): majority of drug-related AEs were resolved during the dosing visit
- Severity of drug-related AEs ([4]; both cohorts): mild or moderate
- Number of drug-related adverse events (AEs) ([4]; control cohort): 3
- Number of drug-related adverse events (AEs) ([4]; test cohort (on SSRI)): 8

SMILES: CN(C)CCc1c[nH]c2ccccc12 [N,N-dimethyltryptamine, 2-(1H-indol-3-yl)-N,N-dimethylethanamine]
- Durability of antidepressant effect [5]: three months or more

SMILES: CC(C)N(CCc1c[nH]c2cccc(OC(=O)CCCC(=O)O)c12)C(C)C [iprocin-4-glutarate, N,N diisopropyltryptamine-4-glutarate]
- Mean duration of the subjective experience [6]: 3.7 h
